The results in this text go back to patent publication US6521620B1, “Bicyclic compounds capable of inhibiting tyrosine kinases of the epidermal growth factor receptor family” (Warner-Lambert Company, priority 1994, dated 2003).

Structures are written as SMILES. pIC50: −log10 of the molar value. Structures can show the parent of a compound that is named as a salt.

What is called pIC50 is −log10 of the IC50, conventionally taken in molar units. Higher therefore signals a low IC50. As usually defined, the IC50 is the concentration at which inhibition is half-maximal.

In the first assay the target is T1, Human EGF receptor tyrosine kinase (Homo sapiens, UniProt P00533).
T1 construct: isolated from A431 human epidermoid carcinoma cells which overexpress EGF receptor; endogenous in cells; host or cells: A431 human epidermoid carcinoma cells; purified from the lysate on wheat germ agglutinin sepharose
T1 sequence (P00533 25-1210): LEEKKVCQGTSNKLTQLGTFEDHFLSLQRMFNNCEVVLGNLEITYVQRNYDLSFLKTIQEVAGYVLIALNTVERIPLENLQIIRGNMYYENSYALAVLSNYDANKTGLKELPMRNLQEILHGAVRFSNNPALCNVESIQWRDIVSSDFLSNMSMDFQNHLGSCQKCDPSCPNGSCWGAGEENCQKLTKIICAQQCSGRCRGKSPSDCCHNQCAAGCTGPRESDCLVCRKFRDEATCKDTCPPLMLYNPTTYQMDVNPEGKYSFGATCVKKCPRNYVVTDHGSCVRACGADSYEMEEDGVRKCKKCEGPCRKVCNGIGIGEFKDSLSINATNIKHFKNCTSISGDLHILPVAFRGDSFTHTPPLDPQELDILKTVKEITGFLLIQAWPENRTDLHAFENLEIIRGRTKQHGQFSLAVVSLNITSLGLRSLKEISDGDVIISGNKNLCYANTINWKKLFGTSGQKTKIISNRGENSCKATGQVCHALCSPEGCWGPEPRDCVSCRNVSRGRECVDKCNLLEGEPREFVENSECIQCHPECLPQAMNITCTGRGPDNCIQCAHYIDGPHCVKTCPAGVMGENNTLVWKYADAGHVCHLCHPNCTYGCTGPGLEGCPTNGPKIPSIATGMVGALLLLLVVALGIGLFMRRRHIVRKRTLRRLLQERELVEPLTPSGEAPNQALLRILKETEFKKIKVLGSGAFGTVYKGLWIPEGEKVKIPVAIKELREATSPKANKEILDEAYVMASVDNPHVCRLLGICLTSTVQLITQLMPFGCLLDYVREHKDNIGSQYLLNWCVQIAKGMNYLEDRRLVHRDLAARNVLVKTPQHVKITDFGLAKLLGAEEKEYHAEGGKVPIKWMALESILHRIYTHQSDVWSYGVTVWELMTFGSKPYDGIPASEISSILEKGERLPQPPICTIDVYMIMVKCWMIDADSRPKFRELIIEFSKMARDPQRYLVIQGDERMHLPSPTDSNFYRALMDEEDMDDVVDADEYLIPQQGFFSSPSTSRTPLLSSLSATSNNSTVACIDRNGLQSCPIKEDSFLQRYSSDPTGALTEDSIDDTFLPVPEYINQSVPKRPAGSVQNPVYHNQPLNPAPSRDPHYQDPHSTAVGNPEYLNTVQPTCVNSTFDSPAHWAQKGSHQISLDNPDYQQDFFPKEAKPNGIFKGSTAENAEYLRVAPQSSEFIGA
Description: EGF receptor tyrosine kinase inhibition (phosphorylation of PLC-gamma 1 derived peptide). It counts as biochemical.
Conditions: not given
The method, then:
Purification of Epidermal Growth Factor Receptor Tyrosine Kinase—Human EGF receptor tyrosine kinase was isolated from A431 human epidermoid carcinoma cells which overexpress EGF receptor by the following methods. Cells were grown in roller bottles in 50% Delbuco's Modified Eagle and 50% HAM F-12 nutrient media (Gibco) containing 10% fetal calf serum. Approximately 10^9 cells were lysed in two volumes of buffer containing 20 mM 2-(4N-[2-hydroxyethyl]piperazin-1-yl)ethanesulfonic acid (hepes), pH 7.4, 5 mM ethylene glycol bis(2-aminoethyl ether) N,N,N′,N′-tetraacetic acid, 1% Triton X-100, 10% glycerol, 0.1 mM sodium orthovanadate, 5 mM sodium fluoride, 4 mM pyrophosphate, 4 mM benzamide, 1 mM dithiothreitol, 80 μg/mL aprotinin, 40 μg/mL leupeptin and 1 mM phenylmethylsulfonyl fluoride. After centrifugation at 25,000×g for 10 minutes, the supernatant was equilibrated for 2 h at 4° C. with 10 mL of wheat germ agglutinin sepharose that was previously equilibrated with 50 mM Hepes, […], 0.1% Triton X-100 and 150 mM NaCl, pH 7.5, (equilibration buffer). Contaminating proteins were washed from the resin with 1 M NaCl in equilibration buffer, and the enzyme was eluted with 0.5 M N-acetyl-1-D-glucosamine in equilibration buffer, followed by 1 mM urea. The enzyme was eluted with 0.1 mg/ml EGF.
The reaction was terminated by the addition of 2 mL of […] phosphoric acid and passed through a 2.5 cm phosphocellulose filter disc to bind the peptide. The filter was washed five times with 75 mM phosphoric acid and placed in a vial along with 5 mL of scintillation fluid (Ready gel Beckman).
Take `Brc1cccc(Nc2ncnc3sccc23)c1` [Example 73, 4-(3-Bromoanilino)thieno[2,3-d]pyrimidine]: the negative logarithm of the IC50 (pIC50) is 7.44.

For `Brc1cccc(Nc2ncnc3ccsc23)c1` [Example 71, 4-(3-Bromoanilino)thieno[3,2-d]pyrimidine Hydrochloride], the pIC50 is 7.96.

Staying with this assay, now noted: Table 1, values in nM; read-out: EGF Receptor Tyrosine Kinase Inhibition IC50.
For `Fc1cc2ncnc(Nc3cccc(Br)c3)c2cn1` [Example 12, 4-(3-Bromoanilino)-7-fluoropyrido[4,3-d]pyrimidine], the IC50 was found to be 13 nM.

On to `Nc1cc2ncnc(Nc3cccc(I)c3)c2cn1` [Example 29, 7-Amino-4-(3-iodoanilino)pyrido[4,3-d]pyrimidine], for which the IC50 came to 262 nM.

Consider `Nc1cc2ncnc(Nc3ccccc3Br)c2cn1` [Example 26, 7-Amino-4-(2-bromoanilino)pyrido[4,3-d]pyrimidine], for which the IC50 turned out to be 241 nM.

`c1ccc(CNc2ncnc3ccncc23)cc1` [Example 38, 4-Benzylaminopyrido[4,3-d]pyrimidine]: the IC50 was 71 nM.

In the case of `Nc1ccc(Nc2ncnc3cc(N)ncc23)cc1` [Example 18, 7-Amino-4-(4-aminoanilino)pyrido[4,3-d]pyrimidine], the IC50 was 173 nM.

Turning to `Nc1cc2ncnc(Nc3cccc(F)c3)c2cn1` [Example 23, 7-Amino-4-(3-fluoroanilino)pyrido[4,3-d]pyrimidine], the IC50 came out at 840 nM.

With `c1ccc(CNc2ncnc3ccsc23)cc1` [Example 72, 4-Benzylaminothieno[3,2-d]pyrimidine], the IC50 was 35 nM.

On to `c1ccc(Nc2ncnc3cnccc23)cc1` [Example 55, 4-Anilinopyrido[3,4-d]pyrimidine], for which the IC50 stood at 400 nM.

On to `CNc1cc2ncnc(N(C)c3cccc(Br)c3)c2cn1` [Example 35, 4-[N-(3-Bromophenyl)-N-methylaminol-7-methylaminopyrido 4,3-d]pyrimidine], for which the IC50 came out at 3.1 nM.

For the compound `COc1cccc(Nc2ncnc3cc(N)ncc23)c1` [Example 15, 7-Amino-4-(3-methoxyanilino)pyrido[4,3-d]pyrimidine], the IC50 came to 134 nM.

In the case of `Nc1cc2ncnc(Nc3ccc(Cl)c(Cl)c3)c2cn1` [Example 25, 7-Amino-4-(3,4-dichloroanilino)pyrido[4,3-d]pyrimidine], the half-inhibitory concentration (IC50) stood at 377 nM.

For `COc1cc2ncnc(Nc3cccc(Br)c3)c2cn1` [Example 37, 4-(3-Bromoanilino)-7-methoxypyrido[4,3-d]pyrimidine], the IC50 stood at 39 nM.

Take `Nc1cc2ncnc(Nc3cccc(O)c3)c2cn1` [Example 14, 7-Amino-4-(3-hydroxyanilino)pyrido[4,3-d]pyrimidine]: the IC50 worked out at 70 nM.

For the compound `Nc1cc2ncnc(NCc3ccccc3N)c2cn1` [Example 42, 7-Amino-4-(2-aminobenzylamino)pyrido[4,3-d]pyrimidine], the IC50 was found to be 226 nM.

On to `Brc1cccc(Nc2ncnc3ccncc23)c1` [Example 11, 4-(3-Bromoanilino)pyrido[4,3-d]pyrimidine], for which the IC50 is 194 nM.

On to `Brc1cccc(Nc2ncnc3cnc(N4CCCCC4)cc23)c1` [Example 79, 4-(3-Bromoanilino)-6-(piperidin-1-yl)pyrido[3,4-d]pyrimidine], for which the IC50 was 6.7 nM.

On to `Brc1cccc(Nc2ncnc3[nH]cnc23)c1` [Example 75, N^6-(3-Bromophenyl)adenine], for which the IC50 came out at 55 nM.

`COc1ccc2ncnc(Nc3cccc(Br)c3)c2n1` [Example 9, 4-(3-Bromoanilino)-6-methoxypyrido[3,2-d]pyrimidine]: the IC50 turned out to be 405 nM.

In the case of `CC(=O)Nc1cc2ncnc(NCc3ccccc3)c2cn1` [Example 54, 7-Acetylamino-4-benzylaminozpyrido[4,3-d]pyrimidine], the IC50 came to 100 nM.

Regarding `COc1ccc2c(Nc3cccc(Br)c3)ncnc2n1` [Example 68, 4-(3-Bromoanilino)-7-methoxypyrido[2,3-d]pyrimidine], the IC50 worked out at 263 nM.

The same assay, now with this note: Table 1, values in pM; read-out: EGF Receptor Tyrosine Kinase Inhibition IC50.
Consider `CNc1cc2ncnc(Nc3cccc(Br)c3)c2cn1` [Example 33, 4-(3-Bromoanilino)-7-methylaminopyrido[4 3-d]pyrimidine], for which the IC50 worked out at 0.13 nM.

With `CN(C)c1cc2ncnc(Nc3cccc(Br)c3)c2cn1` [Example 34, 4-(3-Bromoanilino)-7-dimethylaminpyrido[4,3-d]pyrimidine], the IC50 worked out at 0.091 nM.

Staying with this assay, now noted: Table 1, values printed in μM; read-out: EGF Receptor Tyrosine Kinase Inhibition IC50.
For the compound `Brc1cccc(Nc2ncnc3cccnc23)c1` [Example 3, 4-(3-Bromoanilino)pyrido[3,2-d]pyrimidine], the IC50 came out at 1100 nM.

For `c1ccc(Nc2ncnc3cccnc23)cc1` [Example 1, 4-Anilinopyrido[3,2-d]pyrimidine Mesylate], the IC50 was 8000 nM.

With `CN(C)c1cccc(Nc2ncnc3cc(N)ncc23)c1` [Example 19, 7-Amino-4-(3-dimethylaminoanilino)pyrido [4,3-d]pyrimidine], the IC50 was determined as 1800 nM.

Regarding `Nc1cc2ncnc(NCc3ccc(C(F)(F)F)cc3)c2cn1` [Example 52, 7-Amino-4-(4-trifluoromethylbenzylamino)pyrido[4,3-d]pyrimidine], the IC50 turned out to be 8000 nM.

On to `Nc1cc2ncnc(NCc3cccs3)c2cn1` [Example 53, 7-Amino-4-(thien-2-ylmethylamino)[4,3-d]pyrimidine Dimesylate], for which the IC50 is 1800 nM.

For `Clc1ccc2ncnc(Nc3cccc(Br)c3)c2n1` [Example 5, 4-(3-Bromoanilino)-6-chloropyrido[3,2-d]pyrimidine], the IC50 is 1900 nM.

With `Nc1cc2ncnc(NCc3cccc(Br)c3)c2cn1` [Example 48, 7-Amino-4-(3-bromobenzylamino)pyrido[4,3-d]pyrimidine], the IC50 was determined as 1000 nM.

Turning to `Nc1cc2ncnc(NCc3ccccc3C(F)(F)F)c2cn1` [Example 50, 7-Amino-4-(2-trifluoromethylbenzylamino)pyrido[4,3-d]pyrimidine], the IC50 was determined as 10000 nM.

`CNc1ncc2c(NCc3ccccc3)ncnc2n1` [Example 69, 4-Benzylamino-7-methylaminopyrimido[4,5-d]pyrimidine]: the IC50 was determined as 7000 nM.

Regarding `Nc1cc2ncnc(Nc3ccccc3[N+](=O)[O-])c2cn1` [Example 21, 7-Amino-4-(2-nitroanilino)pyrido[4,3-d]pyrimidine], the IC50 amounted to 1250 nM.

As for `Nc1cc2ncnc(NCc3ccc(Br)cc3)c2cn1` [Example 49, 7-Amino-4-(4-bromobenzylamino)pyrido[4,3-d]pyrimidine], the IC50 came to 2500 nM.

For `Nc1cc2ncnc(NCc3cccc([N+](=O)[O-])c3)c2cn1` [Example 44, 7-Amino-4-(3-nitrobenzylamino)pyrido[4,3-d]pyrimidine], the IC50 worked out at 10000 nM.

Take `CN(C)c1cccc(CNc2ncnc3cc(N)ncc23)c1` [Example 43, 7-Amino-4-(3-dimethylaminobenzylamino)pyrido[4,3-d]-pyrimidine]: the IC50 stood at 10000 nM.

On to `Nc1cc2ncnc(Nc3ccc(C(F)(F)F)cc3)c2cn1` [Example 32, 7-Amino-4-(4-trifluoromethylanilino)3pyrido[4,3-d]pyrimidine], for which the IC50 turned out to be 4700 nM.

Take `c1ccc(CNc2ncnc3cnccc23)cc1` [Example 62, 4-(Benzylamino)pyrido[3,4-d]pyrimidine]: the IC50 was found to be 6100 nM.

`c1ccc(Nc2ncnc3ccncc23)cc1` [Example 10, 4-Anilinopyrido[4,3-d]pyrimidine]: the IC50 came to 6100 nM.

With `c1ccc(CNc2ncnc3nc[nH]c23)cc1` [Example 76, N^6-Benzyladenine], the IC50 is 10000 nM.
